Among the data in the NIST ThermoML archive (doi:10.1016/j.jct.2004.07.010) are mass density and refractive index values, retold here.

For series [1] the following is noted: 298.15 K, 101.33 kPa, Liquid.
Series [2] is described as follows: refractive index (Na D-line) (dimensionless). The following applies: 293.15 K; 101.33 kPa; Liquid; Standard Abbe refractometry.

Structures are written as SMILES. ± gives the expanded uncertainty stated by the source.

As a reminder, the mass density is the mass of a sample divided by its volume. As a reminder, the refractive index is the speed of light in vacuum divided by its phase velocity in the sample. For `CCc1ccccc1` [ethylbenzene], the mass density in series [1] (Vibrating tube method) is reported as 862.44 ± 0.55 kg/m3. Moreover, in series [2], the refractive index is 1.4962 ± 0.0008.

Regarding `C=Cc1ccccc1` [styrene], the mass density in series [1] was determined as 901.51 ± 0.31 kg/m3. For the same compound, the refractive index in series [2] was 1.546 ± 0.0007.

On to `O=C1CCCCC1` [cyclohexanone], for which, in series [1] (Vibrating tube method), the mass density came out at 941.7 ± 0.11 kg/m3. For the same compound, the refractive index in series [2] was 1.4507 ± 0.0007.

With `Cc1ccccc1` [toluene], the mass density in series [1] came to 862.14 ± 0.94 kg/m3. In addition, in series [2], the refractive index was 1.4965 ± 0.0008.

As for `c1ccccc1` [benzene], the mass density in series [1] came out at 873.56 ± 0.35 kg/m3. In addition, the refractive index in series [2] came out at 1.5009 ± 0.0007.
